The record followed here is ChEMBL document CHEMBL1123160, “(1-Amino-2-propenyl) phosphonic acid, an inhibitor of alanine racemase and D-alanine:D-alanine ligase” (J Med Chem, 1986).

The test system of assay [1] is Enterococcus faecalis. Kind of assay: (§1) The compound was tested for the inhibition of D-alanine:D-alanine ligase from streptococcus faecalis.
A short description of assay [2]: as §1. Further details: species or system Enterococcus faecalis.

pKi: −log10 of the molar value.

As for `C=CC(N)P(=O)(O)O` (configuration not stated), in assay [1], the Michaelis-Menten constant (Km) was 7 mM. This molecule showed a pKi in assay [2] of 2.30.

As a reminder, the Km is the concentration of substrate that gives half-maximal velocity. Usually pKi stands for the Ki on a negative log10 scale, so that one unit is a factor of ten.
